Legend:
[1] = tested on: mouse insulinoma MIN6 cell; assay: Insulin secretagogue effect of free fatty acid in mouse insulinoma MIN6 cell (RIA); type: cell-based; settings: 300 μM-1000 μM free fatty acid-BSA (4:1), 11 mM glucose, 90 min (or 60 min)
Procedure: Unless otherwise specified, MIN6 cell was incubated in DMEM (high glucose, Invitrogen) containing 15% FCS (Trace Scientific Ltd.), 55 μM 2-mercaptoethanol, 100 U/ml penicillin, and 100 μg/ml streptomycin. Min6 cells were seeded in a 96 well plate at 10^5 cells per well, and incubated at 37° C. for 3 days in a CO2 incubator adjusted to 5% CO2 concentration. The medium was exchanged to RPMI1640 (glucose-free, Invitrogen) containing 10% FCS (Trace Scientific Ltd.), 5.5 mM glucose, 100 U/ml penicillin and 100 μg/ml streptomycin and the cells were further incubated for 24 hrs. The medium was aspirated, free fatty acid-bovine serum albumin (BSA) mixed solution (4:1, molar ratio) diluted with RPMI1640 (glucose-free, Invitrogen) containing 10% FCS (Trace Scientific Ltd.), 11 mM glucose, 100 U/ml penicillin, and 100 μg/ml streptomycin was added to the cells and reacted at 37° C. for 90 min. (or 60 min.) in a CO2 incubator adjusted to 5% CO2 concentration. The 96 well plate after reaction was centrifuged at 1500 rpm for 5 min. and the culture supernatant was recovered. The insulin amount secreted in this culture supernatant liquid was determined by radioimmunoassay (RIA) using a rat insulin RIA system (Amersham Pharmacia Biotech).

[2] = tested on: mouse pancreatic β cell line MIN6; assay: Promotion of insulin secretion from MIN6 (insulin immunoassay); type: cell-based; settings: MIN6, KRBH with 22 mM glucose, 90 min
Procedure: (§1) Mouse pancreatic β cell line MIN6 cultured in a flask was detached with PBS containing 2.5 mM EDTA, and seeded and incubated in a 96 well plate for 2 days. The medium used was obtained by adding 15% fetal bovine serum (ThermoTrace), […] 2-mercaptoethanol (Invitrogen), 20 mM HEPES pH 7.3, 100 U/ml penicillin and 100 μg/ml streptomycin to Dulbecco's Modified Eagle Medium (DMEM, Invitrogen) containing 4.5 g/l of glucose. The cells were washed twice with modified Krebs-Ringer bicarbonate buffer (KRBH, 116 mM NaCl, 4.7 mM KCl, 1.2 mM KH2PO4, 1.2 mM MgSO4, 2.5 mM CaCl2, 25 mM NaHCO3, 24 mM HEPES pH 7.3) and preincubated at 37° C. under 5% CO2 conditions for 30 min. Fatty acid diluted and prepared with a buffer obtained by adding 22 mM glucose to the above-mentioned KRBH was added to the cell after preincubation and the cells were incubated at 37° C. under 5% CO2 conditions for 90 min. After incubation, the cell supernatant was recovered and cryopreserved. The insulin content of the supernatant was measured using a commercially available insulin immunoassay kit (Amersham Pharmacia Biotech).
as §1, with “(KBH,” for “(KRBH,”, “The compound” for “Fatty acid”

[3] = biological target: T1, human-derived GPR40 (Homo sapiens, UniProt O14842); assay: Reactivity of fatty acid to human-derived GPR40, intracellular calcium by FLIPR in transfected CHO-K1 cells; type: cell-based; settings: for activity in intracellular calcium ion mobilization assay using CHO cell expressing GPR40 (GPR40 agonistic activity): as stated in Experimental Example 6
T1 construct: expressed in transfected cells; host or cells: CHO-K1, transient transfection with lipofectamine
T1 sequence (O14842 whole entry): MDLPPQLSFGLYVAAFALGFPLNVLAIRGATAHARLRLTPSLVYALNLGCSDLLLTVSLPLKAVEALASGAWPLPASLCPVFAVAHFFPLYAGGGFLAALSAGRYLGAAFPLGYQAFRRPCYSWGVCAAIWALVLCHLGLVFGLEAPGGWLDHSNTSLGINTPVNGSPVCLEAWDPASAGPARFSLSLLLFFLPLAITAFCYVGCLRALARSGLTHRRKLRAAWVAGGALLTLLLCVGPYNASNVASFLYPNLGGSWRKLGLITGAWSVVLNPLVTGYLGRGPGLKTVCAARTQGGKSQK
Procedure: Unless specifically indicated, CHO-K1 cell line was cultured using Ham's F-12 medium (Invitrogen) containing 10% fetal calf serum (Invitrogen). The day before transfection, 4.5×10^5 per 10 cm^2 of cells were seeded, and incubated at 37° C. for not less than 15 hrs in a CO2 incubator adjusted to 5% CO2 concentration. The transfection was performed using a lipofectamine reagent (Invitrogen) and according to the reagent attached method. When a 6-well plate was used for a culture plate, transfection was performed in the following manner. First two 1.5 ml volume tubes were prepared, and 100 μl of Opti-MEM-I medium (Invitrogen) was dispensed. Then, […] of an expression vector was added to one tube and 6 μl of a lipofectamine reagent was added to the other tube. They were mixed and stood still at room temperature for 20 min. A mixed solution for transfection containing this solution and Opti-MEM-I medium (800 μl) was added to CHO-K1 cell previously washed with Opti-MEM-I medium, and incubated in a CO2 incubator for 6 hrs. The incubated cells were rinsed with PBS (Invitrogen), detached with 0.05% trypsin-EDTA solution (Invitrogen), recovered by centrifugation. The obtained cells were counted, diluted such that 5×10^4 cells were contained per 200 μl of the medium, dispensed to black walled 96-well plate (Costar) at 200 μl per well, incubated overnight in a CO2 incubator. Various test samples were added to CHO-K1 cells transiently expressing the receptor by the above-mentioned transfection step, and changes in the intracellular calcium concentration then was measured using FLIPR (Molecular Device). For measurement of changes in intracellular calcium concentration by FLIPR, the following pretreatment was applied. First, an assay buffer for adding fluorescence dye Fluo-3AM (DOJIN) to the cell, or washing the cell immediately before FLIPR assay was prepared. To a solution (hereinafter HBSS/HEPES solution) obtained by adding 20 ml of 1M HEPES (pH 7.4) (DOJIN) to 1000 ml of HBSS (Invitrogen) was added a solution (10 ml) obtained by dissolving probenecid (710 mg, Sigma) in 1N NaOH (5 ml) and adding and mixing with HBSS/HEPES solution (5 ml) and the obtained solution was used as an assay buffer. Then, Fluo-3AM (50 μg) was dissolved in 21 μl of DMSO (DOJIN), and an equal amount of 20% pluronic acid (Molecular Probes) was added. The mixture was added to an assay buffer (10.6 ml) supplemented with 105 μl of fetal calf serum to give a fluorescence dye solution. The medium of the CHO-KL cell after transfection treatment was removed, a fluorescence dye solution was immediately dispensed at 100 μl per well and incubated in a CO2 incubator for 1 hr to incorporate the fluorescence dye into the cell. The incubated cells were washed with the above-mentioned assay buffer and set on FLIPR. The test sample to be added to receptor expressing CHO-KL cell was prepared using the assay buffer and simultaneously set on FLIPR. After the above-mentioned pretreatment, changes in the intracellular calcium concentration after addition of various test samples were measured by FLIPR.

[4] = tested on: siRNA-introduced MIN6 cell; assay: Insulin secretion enhancing activity of fatty acid in siRNA-introduced MIN6; type: cell-based, mouse
Procedure: (§2) The expression amount of mouse GPR40-GFP was detected by the following enzyme immunoassay. The culture supernatant was discarded, washed with HBSS (Invitrogen), fixed with 0.01% glutaraldehyde (Wako Pure Chemical Industries, Ltd.) for 5 min., and blocked with PBS (TAKARA SHUZO) containing 2% BSA. 500-fold diluted anti-GFP monoclonal antibody 3E6 (NIPPON GENE CO., LTD.) was added and the cells were incubated at room temperature for 2 hrs., washed and 500-fold diluted HRP-labeled anti-mouse IgG antibody (ICN) was added, and the cells were incubated at room temperature for 2 hrs. After washing, TMB microwell peroxydase substrate (Funakoshi) was added and, after incubation for 30 min., sulfuric acid was added to stop the color developing reaction, and the absorbance at 450 nm was measured.
as §1
Insulin secretion enhancing activity in MIN6 cell, into which m40i103 was introduced using HVJ Envelope VECTOR KIT GenomONE based on the method of Experimental Example 5, was examined. The insulin secretion enhancing activity by fatty acid was examined by the method of Experimental Example 6.

[5] = tested on: mouse GPR40-GFP fused protein; assay: Suppression of expression of mouse GPR40-GFP fused protein by siRNA in CHO cells (enzyme immunoassay); type: cell-based; settings: siRNA 2.86 Pmol/0.5 μl or 8.57 Pmol/1.5 μl introduced into mouse GPR40-GFP expressing CHO cell; absorbance at 450 nm
Procedure: as §2, with “CHO cell expressing fused protein of mouse GPR40 and GFP prepared by a method known per se was seeded in a 96 well plate at 3×10^4/well and incubated for one day. siRNA of various sequences (Dharmacon) (concentration of 2.86 Pmol/0.5 μl or 8.57 Pmol/1.5 μl) prepared using HVJ Envelope VECTOR KIT GenomONE™ ([…] SANGYO) and according to the report of Elbasir et al. (Nature 411 (6836), 494-498 (2001)) was introduced into the cells and the cells were further incubated for one day. The expression” for “The expression”

| Compound | insulin secretion by MIN6 cell [1] | insulin secretion enhancing activity [2] | activity in intracellular calcium ion mobilization assay using CHO cell expressing GPR40 (GPR40 agonistic activity) [3] | mouse GPR40-GFP expression amount [5] | other results |
| --- | --- | --- | --- | --- | --- |
| CCCCCCCC/C=C\CCCCCCCC(=O)O [oleic acid] | promoted | significant insulin secretion enhancing activity | remarkable activity | – | response (increase in intracellular calcium concentration) of CHO-K1 cell expressing the GPR40 receptor ([3]; added at 10^−5M-10^−6M, FLIPR, control-vector cells showed no response): specifically responds |
| CCCCCCCCCCCCCCCC(=O)O [palmitic acid] | promoted | – | – | – | – |
| CCCCC/C=C\C/C=C\C/C=C\CCCCC(=O)O [γ-linolenic acid] | promoted | significant insulin secretion enhancing activity | remarkable activity | – | insulin secretion enhancing activity of fatty acid ([4]; MIN6 into which GPR40 specific siRNA m40i103 was introduced): no longer showed insulin secretion enhancing activity; insulin secretion enhancing activity of fatty acid ([4]; MIN6 into which random sequence Scramble II duplex siRNA was introduced): retention of the insulin secretion enhancing activity |
| m40i103: "a mouse GPR40 specific siRNA (sense strand is SEQ ID NO: 23, antisense strand is SEQ ID NO: 24)" (sense CGCCAGUUGUGACAUUCUUTT; antisense TTGCGGUCAACACUGUAAGAA; chemistry not given here; one strand is listed 3' to 5') | – | – | – | lower GPR40-GFP expression amount | effect of siRNA introduction on insulin secretion enhancing activity by linoleic acid and γ-linolenic acid ([4]; siRNA introduced into MIN6 with HVJ Envelope VECTOR KIT GenomONE): no longer showed insulin secretion enhancing activity |
| m40i256: mouse GPR40 specific siRNA "(sense strand is SEQ ID NO: 25, antisense strand is SEQ ID NO: 26)" (sense CUUGUUAGCCAUCCGAGGCTT; antisense TTGAACAATCGGTAGGCTCCG; chemistry not given here; one strand is listed 3' to 5') | – | – | – | lower GPR40-GFP expression amount | – |
